Test results: US11672798B2, “Ciprofloxacin ophthalmic topical composition for treating ocular disease” (LABORATORIOS SALVAT, S.A., priority 2021, dated 2023)

Columns and labels:
[1] = topical ocular administration, background statement; cited from earlier work
[2] = tested on: SIRC (Statens Serum Institut Rabbit Cornea, ATCC CCL-60) cells
Experimental: Permeability assays were performed in triplicate and repeated at least in three independent assays on different days. For this purpose, SIRC (Statens Serum Institut Rabbit Cornea, ATCC® CCL-60™) cells were seeded in sterile 6-well microfilter plates and maintained in culture until confluence. SIRC cells were cultured in Eagle's Minimum Essential Medium (EMEM) supplemented with 10% foetal bovine serum (FBS) and with 1% of penicillin-streptomycin solution at 37° C. and 10% CO2 in air. Ciprofloxacin was dissolved in dimethyl sulfoxide (DMSO) to prepare a concentrated stock solution which was further diluted in culture medium to obtain a final concentration of 20 μg/ml.
The cells were treated with ciprofloxacin alone or in combination with the different concentrations of each corticosteroid for 15 minutes. After the incubation period, the culture medium was removed, and the cells were harvested by trypsinization and centrifuged at 980 g for 5 min at 4° C. The cellular pellet was washed with saline solution to remove possible traces of residual extracellular compounds, centrifuged, and preserved at −80° C. for further analysis.
Intracellular ciprofloxacin was quantified by ultra-high-performance liquid chromatography coupled to tandem mass spectrometry (UHPLC-MS/MS). […] Transition monitored for ciprofloxacin was m/z 332.2→288.2, with cone voltage 35 V and collision energy 20 eV.

O=C(O)c1cn(C2CC2)c2cc(N3CCNCC3)c(F)cc2c1=O [ciprofloxacin, Ciprofloxacin]
fraction of topically instilled drug absorbed into the ocular tissue [1]: around 1%

CC1(C)O[C@@H]2C[C@H]3[C@@H]4C[C@H](F)C5=CC(=O)C=C[C@]5(C)[C@@]4(F)[C@@H](O)C[C@]3(C)[C@]2(C(=O)CO)O1 [fluocinolone acetonide, Fluocinolone acetonide]
dose dependence of the penetration enhancing effect on ciprofloxacin [2]: dose-dependent
